Key:
Settings in all cases: binder
OSR1 = OSR1 (Homo sapiens, UniProt O95747)
CK2a2 = CK2a2 (Homo sapiens, UniProt P19784)
CDK2 = CDK2 (Homo sapiens, UniProt P24941)
CaMK4 = molecular target: T1, CaMK4 (Homo sapiens, UniProt Q16566)
T1 sequence (Q16566 1-473): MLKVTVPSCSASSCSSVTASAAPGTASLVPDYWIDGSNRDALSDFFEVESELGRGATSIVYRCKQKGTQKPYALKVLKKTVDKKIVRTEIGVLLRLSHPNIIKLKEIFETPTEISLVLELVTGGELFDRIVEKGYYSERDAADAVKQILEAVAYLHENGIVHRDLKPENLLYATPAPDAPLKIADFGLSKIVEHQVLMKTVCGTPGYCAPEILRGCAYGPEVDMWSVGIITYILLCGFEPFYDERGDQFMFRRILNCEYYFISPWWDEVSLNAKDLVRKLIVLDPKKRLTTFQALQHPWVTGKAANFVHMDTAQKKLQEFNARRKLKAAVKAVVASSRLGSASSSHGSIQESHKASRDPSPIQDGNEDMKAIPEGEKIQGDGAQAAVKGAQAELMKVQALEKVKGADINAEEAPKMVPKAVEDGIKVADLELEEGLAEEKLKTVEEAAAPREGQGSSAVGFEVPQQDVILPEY

MAP3K5 = molecular target: T2, MAP3K5 (Homo sapiens, UniProt Q99683)
T2 sequence (Q99683 1-1374): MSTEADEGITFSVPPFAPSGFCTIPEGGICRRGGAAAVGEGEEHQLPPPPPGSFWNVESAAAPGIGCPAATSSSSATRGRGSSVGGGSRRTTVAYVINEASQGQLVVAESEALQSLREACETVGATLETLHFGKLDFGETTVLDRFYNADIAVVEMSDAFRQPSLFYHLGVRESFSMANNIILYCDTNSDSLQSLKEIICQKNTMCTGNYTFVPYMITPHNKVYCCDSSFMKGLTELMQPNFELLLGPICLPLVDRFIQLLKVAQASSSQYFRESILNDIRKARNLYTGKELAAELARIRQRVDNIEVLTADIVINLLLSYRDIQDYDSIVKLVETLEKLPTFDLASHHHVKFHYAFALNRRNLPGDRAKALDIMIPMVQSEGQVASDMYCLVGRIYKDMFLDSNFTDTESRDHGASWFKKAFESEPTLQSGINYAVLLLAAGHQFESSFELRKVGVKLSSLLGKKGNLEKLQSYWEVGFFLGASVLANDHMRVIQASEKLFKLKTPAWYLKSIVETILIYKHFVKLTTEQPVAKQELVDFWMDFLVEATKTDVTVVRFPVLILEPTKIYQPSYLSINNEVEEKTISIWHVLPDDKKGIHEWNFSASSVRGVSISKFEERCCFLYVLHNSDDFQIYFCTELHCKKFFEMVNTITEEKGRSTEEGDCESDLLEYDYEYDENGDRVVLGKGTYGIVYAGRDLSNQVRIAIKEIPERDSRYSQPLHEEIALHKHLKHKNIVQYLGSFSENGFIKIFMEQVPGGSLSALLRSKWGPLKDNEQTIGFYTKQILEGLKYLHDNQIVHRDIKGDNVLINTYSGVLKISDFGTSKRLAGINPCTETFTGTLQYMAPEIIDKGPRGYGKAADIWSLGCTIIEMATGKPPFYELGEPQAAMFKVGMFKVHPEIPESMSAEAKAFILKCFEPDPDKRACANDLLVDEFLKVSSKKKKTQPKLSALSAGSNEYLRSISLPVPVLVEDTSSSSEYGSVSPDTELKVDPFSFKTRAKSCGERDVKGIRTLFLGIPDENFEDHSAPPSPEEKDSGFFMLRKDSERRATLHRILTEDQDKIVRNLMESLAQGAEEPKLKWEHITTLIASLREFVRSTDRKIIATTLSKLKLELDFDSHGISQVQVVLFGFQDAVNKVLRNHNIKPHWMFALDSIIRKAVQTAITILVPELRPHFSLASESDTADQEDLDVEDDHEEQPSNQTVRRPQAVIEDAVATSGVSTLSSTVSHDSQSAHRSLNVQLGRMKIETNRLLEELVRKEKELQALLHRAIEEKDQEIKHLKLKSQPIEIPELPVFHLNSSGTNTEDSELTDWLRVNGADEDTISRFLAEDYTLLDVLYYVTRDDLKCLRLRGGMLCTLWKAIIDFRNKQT

AurA = molecular target: T3, AurA (Homo sapiens, UniProt O14965)
T3 sequence (O14965 1-403): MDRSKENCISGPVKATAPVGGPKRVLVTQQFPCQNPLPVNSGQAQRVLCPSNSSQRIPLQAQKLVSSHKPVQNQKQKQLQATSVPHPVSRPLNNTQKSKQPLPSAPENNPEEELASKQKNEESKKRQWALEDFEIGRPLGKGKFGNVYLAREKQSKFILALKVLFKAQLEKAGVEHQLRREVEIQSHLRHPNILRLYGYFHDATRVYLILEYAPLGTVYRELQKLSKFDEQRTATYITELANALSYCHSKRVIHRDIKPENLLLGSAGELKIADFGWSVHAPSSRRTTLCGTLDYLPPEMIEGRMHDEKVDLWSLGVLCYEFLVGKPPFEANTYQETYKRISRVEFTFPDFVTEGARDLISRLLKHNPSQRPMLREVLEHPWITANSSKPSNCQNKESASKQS

Chain of CK2a2 (P19784 whole entry): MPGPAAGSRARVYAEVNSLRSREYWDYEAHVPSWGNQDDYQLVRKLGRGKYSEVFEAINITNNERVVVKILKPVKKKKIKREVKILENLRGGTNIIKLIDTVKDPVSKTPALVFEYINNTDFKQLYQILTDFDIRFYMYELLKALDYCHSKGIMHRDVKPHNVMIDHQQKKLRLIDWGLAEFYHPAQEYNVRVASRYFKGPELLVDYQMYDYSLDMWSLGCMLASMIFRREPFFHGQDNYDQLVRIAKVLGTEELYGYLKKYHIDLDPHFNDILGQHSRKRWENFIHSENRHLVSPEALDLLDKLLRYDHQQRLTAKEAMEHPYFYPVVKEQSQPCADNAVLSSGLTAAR
Chain of OSR1 (O95747 whole entry): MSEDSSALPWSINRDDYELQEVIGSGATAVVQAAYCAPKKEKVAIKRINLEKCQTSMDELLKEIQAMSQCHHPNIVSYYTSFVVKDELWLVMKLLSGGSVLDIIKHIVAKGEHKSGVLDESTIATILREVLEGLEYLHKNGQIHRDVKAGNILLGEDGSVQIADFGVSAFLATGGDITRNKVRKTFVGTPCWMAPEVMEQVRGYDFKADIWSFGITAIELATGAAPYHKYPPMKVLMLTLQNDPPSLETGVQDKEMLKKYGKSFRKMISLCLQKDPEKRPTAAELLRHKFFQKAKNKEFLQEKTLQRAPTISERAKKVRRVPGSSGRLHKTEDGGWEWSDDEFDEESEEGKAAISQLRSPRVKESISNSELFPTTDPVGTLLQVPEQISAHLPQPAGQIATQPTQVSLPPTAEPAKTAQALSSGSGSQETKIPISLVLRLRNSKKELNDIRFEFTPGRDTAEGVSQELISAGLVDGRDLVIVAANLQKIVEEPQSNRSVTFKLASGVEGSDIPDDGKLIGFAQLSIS

With `Cc1cccc(-c2ccc(-c3cc4cnc(NCCCN5CCCC5=O)nc4n(CCCCN)c3=O)c(Cl)c2)n1` [compound 27, MR30] the “ΔTm MR30 (27)” value (OSR1) was -1.1 °C, the “ΔTm MR30 (27)” value (CK2a2) was -6.3 °C and the “ΔTm MR30 (27)” value (CDK2) was 1.4 °C. The “ΔTm MR30 (27)” value (CaMK4) was 2.5 °C, the “ΔTm MR30 (27)” value (MAP3K5) was 9.2 °C and the “ΔTm MR30 (27)” value (AurA) was -0.3 °C.
With `Cc1cccc(-c2ccc(-c3cc4cnc(Nc5cc(C(F)(F)F)ccc5C)nc4n(CCCCN)c3=O)c(Cl)c2)n1` [compound 28, 8-(4-Aminobutyl)-6-(2-chloro-4-(6-methylpyridin-2-yl)phenyl)-2-((2-methyl-5-(trifluoromethyl)phenyl)amino)pyrido[2,3-d]pyrimidin-7(8H)-one] the “ΔTm 28” value (OSR1) was 0.1 °C, the “ΔTm 28” value (CK2a2) was -4.2 °C and the “ΔTm 28” value (CDK2) was -0.2 °C. For the same molecule, the “ΔTm 28” value (CaMK4) was 3.9 °C, the “ΔTm 28” value (MAP3K5) was 12.2 °C and the “ΔTm 28” value (AurA) was 6.5 °C.
`Cc1cccc(-c2ccc(-c3cc4cnc(NCCCN5CCNCC5)nc4n(CCCCN)c3=O)c(Cl)c2)n1` [compound 29, 8-(4-Aminobutyl)-6-(2-chloro-4-(6-methylpyridin-2-yl)phenyl)-2-((3-(piperazin-1-yl)propyl)amino)pyrido[2,3-d]pyrimidin-7(8H)-one] was tested, and the “ΔTm 29” value (OSR1) was 0.3 °C, the “ΔTm 29” value (CK2a2) was -1.6 °C and the “ΔTm 29” value (CDK2) was 0.9 °C. The “ΔTm 29” value (CaMK4) was 1.5 °C, the “ΔTm 29” value (MAP3K5) was 9.6 °C and the “ΔTm 29” value (AurA) was -2.1 °C.
`Cc1cccc(-c2ccc(-c3cc4cnc(Nc5ccc(CCCO)cc5)nc4n(CCCCN)c3=O)c(Cl)c2)n1` [compound 30, 8-(4-Aminobutyl)-6-(2-chloro-4-(6-methylpyridin-2-yl)phenyl)-2-((4-(3-hydroxypropyl)phenyl)amino)pyrido[2,3-d]pyrimidin-7(8H)-one] was tested, and the “ΔTm 30” value (OSR1) was 2.3 °C, the “ΔTm 30” value (CK2a2) was -1.8 °C and the “ΔTm 30” value (CDK2) was 4.8 °C. The “ΔTm 30” value (CaMK4) was 5.5 °C, the “ΔTm 30” value (MAP3K5) was 13.1 °C and the “ΔTm 30” value (AurA) was 8.6 °C.
In the case of `Cc1cccc(-c2ccc(-c3cc4cnc(Nc5ccc(O)cc5)nc4n(CCCCN)c3=O)c(Cl)c2)n1` [compound 31, 8-(4-Aminobutyl)-6-(2-chloro-4-(6-methylpyridin-2-yl)phenyl)-2-((4-hydroxyphenyl)amino) pyrido[2,3-d]pyrimidin-7(8H)-one], the “ΔTm 31” value (OSR1) is reported as 3.1 °C, the “ΔTm 31” value (CK2a2) is reported as -0.9 °C and the “ΔTm 31” value (CDK2) is reported as 6.7 °C. The “ΔTm 31” value (CaMK4) was 5.0 °C, the “ΔTm 31” value (MAP3K5) was 12.3 °C and the “ΔTm 31” value (AurA) was 4.4 °C.
In the case of `Cc1cccc(-c2ccc(-c3cc4cnc(Nc5ccc(C)c(O)c5)nc4n(CCCCN)c3=O)c(Cl)c2)n1` [compound 32, 8-(4-Aminobutyl)-6-(2-chloro-4-(6-methylpyridin-2-yl)phenyl)-2-((3-hydroxy-4-methylphenyl)amino)pyrido[2,3-d]pyrimidin-7(8H)-one], the “ΔTm 32” value (OSR1) is reported as 3.1 °C, the “ΔTm 32” value (CK2a2) is reported as -1.6 °C and the “ΔTm 32” value (CDK2) is reported as 5.3 °C. The “ΔTm 32” value (CaMK4) was 4.9 °C, the “ΔTm 32” value (MAP3K5) was 12.7 °C and the “ΔTm 32” value (AurA) was 5.9 °C.

Reference: publication doi:10.1101/2023.11.24.568596v1 (biorxiv, 2023)
